Test results from US4983328A, “N-(4-(3-aminopropyl)aminobutyl)-2-(ω-gua nidino-fatty-acid-amido(-2-substituted-ethanamide, salt thereof, and process for preparation thereof” (Bristol-Myers Company, priority 1981, dated 1991).
Values after ≈ are worked out from the molar mass of the structure shown.

What was measured:
[1] = acute toxicity in mice (single intraperitoneal administration); conditions: mouse, in vivo, ip; mice, single i.p.; read-out: LD50 (median lethal dose on single administration)
Protocol: (§1) In Table 8 median lethal doses (LD50) of typical compounds of this invention are shown, measured in mice upon single intraperitoneal administration, as well as maximum tolerated doses in terms of total dose when a fixed amount per unit body weight was administered intraperitoneally to mice once a day for 6 consecutive days.
*Median lethal dose on single administration.

[2] = cumulative toxicity in mice (maximum tolerated dose, once a day for 6 consecutive days); conditions: mouse, in vivo, ip, i.p. once a day for 6 consecutive days, total dose, read-out: Maximum Tolerated Dose (total dose not causing death)
Protocol: as §1
**Maximum value of the total dose not causing death when a fixed amount
per unit body weight is administered to mice once a day for 6 consecutive

[3] = test system: mouse leukemia L-1210; assay: therapeutic effect on implanted cancer in mice (L-1210, survival over 30 days); assay type: in vivo, mouse (BDF1); conditions: L1210, ip, 720 h, 6 days; for responders at 0.2 mg/kg / response vs control in vivo at 0.2 mg/kg: 0.20 mg/kg/day i.p.; for responders at 0.2 mg/kg / responders at 0.39 mg/kg / responders at 0.78 mg/kg / responders at 1.56 mg/kg / responders at 3.13 mg/kg / responders at 6.25 mg/kg / responders at 12.5 mg/kg / responders at 25 mg/kg / responders at 50 mg/kg: read-out: Number of mice survived for 30 days (converted); for response vs control in vivo at 0.2 mg/kg / response vs control in vivo at 0.39 mg/kg / response vs control in vivo at 0.78 mg/kg / response vs control in vivo at 1.56 mg/kg / response vs control in vivo at 3.13 mg/kg / response vs control in vivo at 6.25 mg/kg / response vs control in vivo at 12.5 mg/kg / response vs control in vivo at 25 mg/kg / response vs control in vivo at 50 mg/kg: read-out: Prolongation of survival period (%), T/C × 100; for responders at 0.39 mg/kg / response vs control in vivo at 0.39 mg/kg: 0.39 mg/kg/day i.p.; for responders at 0.78 mg/kg / response vs control in vivo at 0.78 mg/kg: 0.78 mg/kg/day i.p.; for responders at 1.56 mg/kg / response vs control in vivo at 1.56 mg/kg: 1.56 mg/kg/day i.p.; for responders at 3.13 mg/kg / response vs control in vivo at 3.13 mg/kg: 3.13 mg/kg/day i.p.; for responders at 6.25 mg/kg / response vs control in vivo at 6.25 mg/kg: 6.25 mg/kg/day i.p.; for responders at 12.5 mg/kg / response vs control in vivo at 12.5 mg/kg: 12.5 mg/kg/day i.p.; for responders at 25 mg/kg / response vs control in vivo at 25 mg/kg: 25 mg/kg/day i.p.; for responders at 50 mg/kg / response vs control in vivo at 50 mg/kg: 50 mg/kg/day i.p.
From the text: BDF1 strain male mice (5 weeks old) were each inoculated intraperitoneally with 10^5 mouse leukemia L-1210 cells and treated once a day by intraperitoneal injection with a test compound dissolved in physiological saline for 6 consecutive days beginning from the day of inoculation. The mice were then observed for 30 days to determine the rate of prolongation of survival period=100×T/C=100×(average survival days of treated group)/(average survival days of control group).

[4] = test system: mouse leukemia L-1210 cells; assay: growth inhibitory activity to cancer cells in vitro (L-1210, 48 hours); assay type: cell-based; conditions: for inhibition at 1.25 µg/mL: L1210, 1.25 mcg/ml; for inhibition at 1.25 µg/mL / inhibition at 2.5 µg/mL / inhibition at 5 µg/mL / inhibition at 10 µg/mL / inhibition at 20 µg/mL / inhibition at 40 µg/mL / inhibition at 80 µg/mL / inhibition at 160 µg/mL: read-out: Growth inhibition (%), (1-T/C) × 100; for inhibition at 2.5 µg/mL: L1210, 2.5 mcg/ml; for inhibition at 5 µg/mL: L1210, 5 mcg/ml; for inhibition at 10 µg/mL: L1210, 10 mcg/ml; for inhibition at 20 µg/mL: L1210, 20 mcg/ml; for inhibition at 40 µg/mL: L1210, 40 mcg/ml; for IC50: L1210, L-1210 cells, read-out: 50% inhibitory concentration; for inhibition at 80 µg/mL: L1210, 80 mcg/ml; for inhibition at 160 µg/mL: L1210, 160 mcg/ml
Protocol: DBA/2 mice were implanted with 10^5 mouse leukemia L-1210 cells. The ascites collected asceptically from the mice after 4 days of feeding was washed three times with physiological saline to obtain L-1210 cells, which was then suspended in RPMI 1640 culture medium [G. E. Moore, Journal of the American Medical Association, Vol. 199, 519 (1967); H. J. Morton, In Vitro, Vol. 6, 89 (1970)] to which 10% fetal calf serum and 5 μM 2-mercaptoethanol had been added, and the resulting suspension was diluted to 5×10^4 L-1210 cells per 0.9 ml. A microplate carrying 0.9 ml of the cell suspension and 0.1 ml of the culture medium containing the sample being tested was kept in a carbon dioxide incubator at 37° C. After 48 hours of cultivation, the number of cells was measured by means of a Coulter Counter (Coulter Electronics, Inc., U.S.A.) to obtain the growth inhibition (%)=(1--T/C )×100=[1-(number of grown cells in medium containing sample/(number of grown cells in control medium)]×100. The 50% growth inhibitory concentration was calculated from the values of growth inhibition at varied sample concentrations. The results of tests on typical compounds of this invention for the growth inhibition of L-1210 cells were as shown in Table 6.

| Structure (SMILES) | LD50 [1] [mg/kg] | MTD [2] [mg/kg] | responders at 1.56 mg/kg [3] [%] | response vs control in vivo at 1.56 mg/kg [3] [%] | responders at 3.13 mg/kg [3] [%] | response vs control in vivo at 3.13 mg/kg [3] [%] | responders at 6.25 mg/kg [3] [%] | response vs control in vivo at 6.25 mg/kg [3] [%] | responders at 12.5 mg/kg [3] [%] | response vs control in vivo at 12.5 mg/kg [3] [%] | responders at 25 mg/kg [3] [%] | response vs control in vivo at 25 mg/kg [3] [%] | responders at 50 mg/kg [3] [%] | response vs control in vivo at 50 mg/kg [3] [%] | inhibition at 2.5 µg/mL [4] [%] | inhibition at 5 µg/mL [4] [%] | inhibition at 10 µg/mL [4] [%] | inhibition at 20 µg/mL [4] [%] | inhibition at 40 µg/mL [4] [%] | IC50 [4] [µg/mL] | other results |
| --- | --- | --- | --- | --- | --- | --- | --- | --- | --- | --- | --- | --- | --- | --- | --- | --- | --- | --- | --- | --- | --- |
| N=C(N)NCCCCCCC(=O)NC(O)C(=O)NCCCCNCCCN (centres unmarked) [Compound 4, N-[4-(3-aminopropyl)aminobutyl]-2-(7-guanidinoheptanamido)-2-hydroxyethanamide] | 25 to 50 | > 150 | 100 | > 429 | 50 | > 364 | 25 | > 369 | 50 | > 357 | 0 | 336 | 0 | 0 | 27.5 | 29.9 | 58.4 | 75.5 | 78.7 | 8.1 (≈ 20.9 µM) | responders at 0.2 mg/kg [3]: 0%; response vs control in vivo at 0.2 mg/kg [3]: 197%; responders at 0.39 mg/kg [3]: 75%; response vs control in vivo at 0.39 mg/kg [3]: > 390%; responders at 0.78 mg/kg [3]: 100%; response vs control in vivo at 0.78 mg/kg [3]: > 429%; inhibition at 1.25 µg/mL [4]: 20% |
| N=C(N)NCCCCCCCC(=O)NC(O)C(=O)NCCCCNCCCN (centres unmarked) [Compound 5, N-[4-(3-aminopropyl)aminobutyl]-2-(8-guanidinooctanamido)-2-hydroxyethanamide] | 25 to 50 | > 150 | 0 | 104 | 0 | 118 | 0 | 125 | 0 | 181 | 0 | 306 | 0 | 0 | 24.9 | 29.1 | 40 | 54.2 | 66 | 18 (≈ 44.8 µM) | inhibition at 80 µg/mL [4]: 88.5%; inhibition at 160 µg/mL [4]: 96.8% |
| N=C(N)NCCCCCCCCC(=O)NC(O)C(=O)NCCCCNCCCN (centres unmarked) [Compound 6, N-[4-(3-aminopropyl)aminobutyl]-2-(9-guanidinononanamido)-2-hydroxyethanamide] | 12.5 to 25 | > 75 | 75 | > 393 | 50 | > 386 | 100 | > 429 | 100 | > 429 | 0 | 0 | 0 | 0 | 40.3 | 45.5 | 50.3 | 57.5 |  | 8 (≈ 19.3 µM) | responders at 0.2 mg/kg [3]: 50%; response vs control in vivo at 0.2 mg/kg [3]: > 354%; responders at 0.39 mg/kg [3]: 50%; response vs control in vivo at 0.39 mg/kg [3]: > 383%; responders at 0.78 mg/kg [3]: 100%; response vs control in vivo at 0.78 mg/kg [3]: > 429%; inhibition at 1.25 µg/mL [4]: 38% |
| COC(NC(=O)CCCCCCCNC(=N)N)C(=O)NCCCCNCCCN (centres unmarked) [Compound 10, N-[4-(3-aminopropyl)aminobutyl]-2-(8-guanidinooctanamido)-2-methoxyethanamide] | 12.5 to 25 | > 75 | 0 | 100 | 0 | 100 | 0 | 107 | 0 | 129 | 0 | 0 | 0 | 0 |  | 19.9 | 28.5 | 36.5 | 52.4 | 39 (≈ 93.8 µM) | inhibition at 80 µg/mL [4]: 62.4%; inhibition at 160 µg/mL [4]: 79.5% |
| CCOC(NC(=O)CCCCCCNC(=N)N)C(=O)NCCCCNCCCN (centres unmarked) [Compound 12, N-[4-(3-aminopropyl)aminobutyl]-2-(7-guanidinoheptanamido)-2-ethoxyethanamide] | 12.5 to 25 | > 75 |  |  |  |  |  |  |  |  |  |  |  |  | 21.5 | 31.1 | 38.4 | 47.3 | 58.6 | 21 (≈ 50.5 µM) | inhibition at 80 µg/mL [4]: 73.5% |
| N=C(N)NCCCCCC=CC(=O)NC(O)C(=O)NCCCCNCCCN (centres unmarked) [Compound 17, N-[4-(3-aminopropyl)aminobutyl]-2-(8-guanidino-2-octenamido)-2-hydroxyethanamide] | 12.5 to 25 | > 75 |  |  |  |  |  |  |  |  |  |  |  |  | 4.5 | 13.3 | 16.5 | 33.7 | 52.5 | 70 (≈ 175 µM) | inhibition at 1.25 µg/mL [4]: 2.1% |
| N=C(N)NCCCCCC(O)CC(=O)NC(O)C(=O)NCCCCNCCCN (centres unmarked) [Compound 20, N-[4-(3-aminopropyl)aminobutyl]-2-(8-guanidino-3-hydroxyoctanamido)-2-hydroxyethanamide] | > 50 | > 300 |  |  |  |  |  |  |  |  |  |  |  |  | 20.1 | 28.9 | 30.7 | 45.7 |  | 27 (≈ 64.7 µM) | inhibition at 1.25 µg/mL [4]: 17.2% |
